{"source": "patent US8440835B2", "about": "“Environmentally sensitive fluorophores” (Massachusetts Institute of Technology, priority 2007, dated 2013)", "type_in_all_cases": "physicochemical", "key": {"[1]": {"assay": "Hydrolysis of the imide ring followed by fluorescence in PBS buffer over 24 hours", "protocol": "The 4DMAP and 6DMN fluorophores are likely susceptible to the gradual hydrolysis of the imide ring system in the pH range of 7 to 8. The origin of this reactivity can be attributed to the bond angle strain of the five-membered imide ring system that is released during the ring opening process. […] This is apparent in an experiment performed on both the KR4DMAP and KR4DMN peptides using a PerkinElmer HTS7000 plate reader. Fluorescence of the two peptides was measured at their respective emission wavelengths in PBS buffer over a 24 hour period at 28° C.\nThe fluorophore remained intact throughout the 24 hr duration. This difference between the stability of 4DMN and that of 4DMAP is most evident at pH 8 where the rate of hydrolysis for 4DMAP is greatest (FIG. 7)."}, "[2]": {"assay": "Fluorescence spectra of the KR peptide series in dioxane vs. TBS buffer", "details": "for fluorescence intensity ratio (Idioxane/ITBS), in words: at the wavelength of maximum emission intensity in dioxane", "protocol": "This example illustrates investigations into the biological applications of the dimethylamino phthalimide series of environment sensitive fluorophores (FIGS. 3C-3E), as compared to both dansyl and NBD. A comparative study was performed on the fluorophores of FIG. 3 by synthetically preparing a series of lysine-arginine rich peptides (KR peptide series) such that each peptide in the series contained one of the five fluorophores appended to the side-chain of the residue at position 4 in the peptide sequence (FIG. 4), SEQ ID NOs: 5-9. The fluorescence spectra of the KR peptides were then measured at 5 micromolar in both TBS buffer (pH 7.4) and dioxane (containing 5 mM 18-crown-6). These conditions were selected to determine the magnitude of the fluorescence change for each fluorophore under an ideal set of conditions. […] An advantage of this property is a much improved signal-to-noise ratio for experimental measurements made in the context of real biological systems. […] While it is often possible to optimize the maximum fluorescence output by experimenting with the placement of the selected fluorophore on the protein of interest, the intrinsic fluorescence of the fluorophore in aqueous environments is often a limiting factor when optimizing the fluorescent response."}, "[3]": {"assay": "Resistance of the 4DMN side chain to solid-phase peptide synthesis conditions", "details": "0.12 M diisopropylethylamine; 20% piperidine; 95% TFA", "protocol": "The peptide synthesis was carried out using standard Fmoc-based solid phase peptide synthesis (SPPS) protocols on a 0.05 to 0.1 mmol scale using a 0.21 mmol/g loading PAL-PEG-PS solid support. Amino acids were coupled in three-fold excess using a mixture of 0.2 M HBTU/0.2 M HOBt in DMF as activating agents. Each amino acid was activated for two minutes with the HBTU/HOBt mixture (1 eq.) and diisopropylethylamine (DIPEA), 0.195 M in DMF (1.5 eq.) before being added to the resin. Peptide coupling was monitored using the 2,4,6-trinitrobenzenesulphonic acid (TNBS) test. Amino acids were used as protected Fmoc-amino acids with the standard side chain protecting groups. High-performance liquid chromatography (HPLC) was performed using a Waters 600E HPLC fitted with a Waters 600 automated control module and a Waters 2487 dual wavelength absorbance detector recording at 228 and 280 nm. For analytical HPLC, a Beckman Ultrasphere C18, 5 micrometer, 4.6×150 mm reverse-phase column was used. For preparative separations, a YMC-pack, C18, 250×20 mm reversed phase column was used. The standard gradient for analytical and preparative HPLC used was 93:7 to 5:95 over 35 minutes (water:acetonitrile, 0.1% TFA)."}, "[4]": {"assay": "Exposure to standard Fmoc deprotection protocol (20% 4-methylpiperidine in DMF) on solid support, analysis by MALDI-MS, HPLC, ESI-MS", "protocol": "This example illustrates the incorporation of 4DMAP and 6DMN into peptides by coupling an anhydride precursor of either fluorophore to a free amine on a fully synthesized peptide in the last step prior to cleaving the peptide from the solid support. […] This is evident in the experiment shown in FIG. 9 where the KR peptides of 4DMN and 6DMN were both exposed to a standard Fmoc deprotection protocol while still on solid support. Roughly 20 mg of resin for each peptide was transferred to a small 2 mL spin tube and treated at room temperature with a solution of 20% 4-methylpiperidine in DMF (3×5 min). The peptides were then cleaved from the resin and analyzed by MALDI-MS, HPLC, and ESI-MS.\nThe masses of these two peaks determined by ESI-MS were identical and confirmed to be that of the 4-methylpiperidine adduct. It is believed that the occurrence of the two byproduct peaks, instead of one, is due to varying retention times for the two possible isomers formed depending on which of the imide carbonyls are attacked by the base. […] The HPLC and ESI-MS analysis also confirmed that no reaction occurred. The 4DMNA amino acid appears to be unreactive under these conditions. Furthermore, it is worth emphasizing that the 4DMN chromophore was exposed to this same treatment twice previously during the preparation of the KR4DMN peptide using the 4DMNA Fmoc building-block."}}, "data": [{"molecule": "CN(C)c1ccc2c(c1)C(=O)NC2=O", "note": "[4DMAP, 4-dimethylamino phthalimide, reference compound]", "values": [{"measurement": "rate of hydrolysis", "setting": "[1]; pH 8, PBS buffer, 28° C.", "result": "significantly enhanced"}, {"measurement": "fluorescence intensity ratio (Idioxane/ITBS), in words", "setting": "[2]", "result": "greater than three orders of magnitude"}]}, {"molecule": "CN(C)c1ccc2c3c(cccc13)C(=O)NC2=O", "note": "[4DMN, 4-N,N-dimethylamino-1,8-naphthalimide]", "values": [{"measurement": "resistance to peptide synthesis conditions", "setting": "[3]", "result": "resistant"}, {"measurement": "hydrolysis of the imide ring system", "setting": "[1]; pH range of 7 to 8", "result": "no such reactivity"}, {"measurement": "fluorescence intensity ratio (Idioxane/ITBS), in words", "setting": "[2]", "result": "greater than three orders of magnitude"}]}, {"molecule": "CN(C)c1ccc2c3c(cccc13)C(=O)N(CC(N)C(=O)O)C2=O", "note": "(stereo not drawn) [4DMNA]", "values": [{"measurement": "formation of 4-methylpiperidine adduct", "setting": "[4]; 20% 4-methylpiperidine in DMF, 3×5 min, room temperature, on resin", "result": "unreactive"}]}, {"molecule": "CN(C)c1ccc2cc3c(cc2c1)C(=O)NC3=O", "note": "[6DMN, 6-N,N-dimethylamino-2,3-naphthalimide]", "values": [{"measurement": "fluorescence intensity ratio (Idioxane/ITBS), in words", "setting": "[2]", "result": "greater than three orders of magnitude"}]}, {"molecule": "CN(C)c1ccc2c3c(cccc13)C(=O)N(CC(NC(=O)OCC1c3ccccc3-c3ccccc31)C(=O)O)C2=O", "note": "(stereo not drawn) [Fmoc-4DMNA, N-α-Fmoc-(4-N,N-dimethylamino-1,8-naphthalimido) alanine]", "values": [{"measurement": "susceptibility to nucleophilic attack by bases like 4-methylpiperidine", "setting": "[4]; use in preparation of various peptides", "result": "no susceptibility"}]}, {"molecule": "dansyl", "values": [{"measurement": "λexc", "setting": "[2]; KR peptide series", "result": "below 350 nm"}]}]}
